Results as given in patent US20210403465A1, “QUINAZOLINYL-INDAZOLE DERIVATIVES AND THEIR USE AS INHIBITORS OF HUMAN IMMUNODEFICIENCY VIRUS REPLICATION” (ViiV HEALTHCARE UK (NO.5) LIMITED, priority 2018, published 2021).
pEC50: −log10 of the molar value.

Experiments:
[1] = test system: recombinant NL4-3 virus (Renilla luciferase) in MT-2 cells; assay: HIV cell culture assay (antiviral activity, luciferase readout in MT-2 cells); type: cell-based; conditions: NL43
Protocol: HIV cell culture assay—MT-2 cells, 293T cells and the proviral DNA clone of NL4-3 virus were obtained from the NIH AIDS Research and Reference Reagent Program. MT-2 cells were propagated in RPMI 1640 media supplemented with 10% heat inactivated fetal bovine serum (FBS), […]. The 293T cells were propagated in DMEM media supplemented with 10% heat inactivated FBS, […]. A recombinant NL4-3 proviral clone, in which a section of the nef gene was replaced with the Renilla luciferase gene, was used to make the reference virus used in these studies. The recombinant virus was prepared through transfection of the recombinant NL4-3 proviral clone into 293T cells using Transit-293 Transfection Reagent from Mirus Bio LLC (Madison, Wis.). Supernatant was harvested after 2-3 days and the amount of virus present was titered in MT-2 cells using luciferase enzyme activity as a marker by measuring luciferase enzyme activity. Luciferase was quantitated using the EnduRen Live Cell Substrate from Promega (Madison, Wis.). Antiviral activities of compounds toward the recombinant virus were quantified by measuring luciferase activity in MT-2 cells infected for 4-5 days with the recombinant virus in the presence of serial dilutions of the compound.
The 50% effective concentration (EC50) was calculated by using the exponential form of the median effect equation where (Fa)=1/[1+(ED50/drug conc.)m] (Johnson V A, Byington R T. Infectivity Assay. In Techniques in HIV Research. ed. Aldovini A, Walker B D. 71-76. New York: Stockton Press. 1990). The 50% inhibitory concentration (EC50) was calculated by using the exponential form of the median effect equation where percent inhibition=1/[1+(EC50/drug concentration)m], where m is a parameter that reflects the slope of the concentration-response curve.

[2] = Compound cytotoxicity, XTT-based colorimetric assay; type: cell-based; conditions: human; uninfected MT2 cells, day 4, XTT
Protocol: Compound cytotoxicity and the corresponding CC50 values were determined using the same protocol as described in the antiviral assay except that uninfected cells were used. Cytotoxicity was assessed on day 4 in uninfected MT2 cells by using a XTT (2,3-bis[2-Methoxy-4-nitro-5-sulfophenyl]-2H-tetrazolium-5-carboxyanilide inner salt)-based colorimetric assay (Sigma-Aldrich, St Louis, Mo.).

SMILES | pEC50 [1] | CC50 at 4 days [2] [nM]
Cn1nc(NS(C)(=O)=O)c2c(Cl)ccc(-n3c([C@H](Cc4cc(F)cc(F)c4)NC(=O)Cn4nc(C(F)F)c5c4C(F)(F)[C@@H]4C[C@H]54)nc4cc(OCCN5CCS(=O)(=O)CC5)ccc4c3=O)c21 (atropisomer, axis not shown; (P)) [Example 4, N—((S)-1-((3P)-3-(4-chloro-1-methyl-3-(methylsulfonamido)-1H-indazol-7-yl)-7-(2-(1,1-dioxidothiomorpholino)ethoxy)-4-oxo-3,4-dihydroquinazolin-2-yl)-2-(3,5-difluorophenyl)ethyl)-2-((3bS,4aR)-3-(difluoromethyl)-5,5-difluoro-3b,4,4a,5-tetrahydro-1H-cyclopropa[3,4]cyclopenta[1,2-c]pyrazol-1-yl)acetamide] | 10.10 | > 1000
Cn1nc(NS(C)(=O)=O)c2c(Cl)ccc(-n3c([C@H](Cc4cc(F)cc(F)c4)NC(=O)Cn4nc(C(F)F)c5c4C(F)(F)[C@@H]4C[C@H]54)nc4cc(OCCn5cccn5)ccc4c3=O)c21 (atropisomer, axis not shown; (P)) [Example 13, N—((S)-1-(7-(2-(1H-pyrazol-1-yl)ethoxy)-(3P)-3-(4-chloro-1-methyl-3-(methylsulfonamido)-1H-indazol-7-yl)-4-oxo-3,4-dihydroquinazolin-2-yl)-2-(3,5-difluorophenyl)ethyl)-2-((3bS,4aR)-3-(difluoromethyl)-5,5-difluoro-3b,4,4a,5-tetrahydro-1H-cyclopropa[3,4]cyclopenta[1,2-c]pyrazol-1-yl)acetamide] | 10.49 | > 1000
Cn1nc(NS(C)(=O)=O)c2c(Cl)ccc(-n3c([C@H](Cc4cc(F)cc(F)c4)NC(=O)Cn4nc(C(F)F)c5c4C(F)(F)[C@@H]4C[C@H]54)nc4cc(OCC5CCCC5)ccc4c3=O)c21 (atropisomer, axis not shown; (P)) [Example 2, N—((S)-1-((3P)-3-(4-chloro-1-methyl-3-(methylsulfonamido)-1H-indazol-7-yl)-7-(cyclopentylmethoxy)-4-oxo-3,4-dihydroquinazolin-2-yl)-2-(3,5-difluorophenyl)ethyl)-2-((3bS,4aR)-3-(difluoromethyl)-5,5-difluoro-3b,4,4a,5-tetrahydro-1H-cyclopropa[3,4]cyclopenta[1,2-c]pyrazol-1-yl)acetamide] | 9.74 | > 1000
Cn1nc(NS(C)(=O)=O)c2c(Cl)ccc(-n3c([C@H](Cc4cc(F)cc(F)c4)NC(=O)Cn4nc(C(F)F)c5c4C(F)(F)[C@@H]4C[C@H]54)nc4cc(OCC5CCC5)ccc4c3=O)c21 (atropisomer, axis not shown; (P)) [Example 12, N—((S)-1-((3P)-3-(4-chloro-1-methyl-3-(methylsulfonamido)-1H-indazol-7-yl)-7-(cyclobutylmethoxy)-4-oxo-3,4-dihydroquinazolin-2-yl)-2-(3,5-difluorophenyl)ethyl)-2-((3bS,4aR)-3-(difluoromethyl)-5,5-difluoro-3b,4,4a,5-tetrahydro-1H-cyclopropa[3,4]cyclopenta[1,2-c]pyrazol-1-yl)acetamide] | 9.82 | > 1000
